Assay: Antiinflammatory activity in rat polymorphonuclear leukocytes assessed as inhibition of platelet activating factor-induced release of glucuronidase at 10 uM after 15 mins
Assay type: functional
Details: 0.25 h

Point of comparison: `C=C[C@H]1[C@H](O[C@@H]2O[C@H](CO)[C@@H](O)[C@H](O)[C@H]2O)OC=C(C(=O)OC)[C@H]1/C=C/c1cc(C(=O)[O-])c[n+](CCO)c1` [LONIJAPOSIDE B], inhibition at 10 µM 35.8%. Against it:
- C=C[C@H]1[C@H](O[C@@H]2O[C@H](CO)[C@@H](O)[C@H](O)[C@H]2O)OC=C(C(=O)OC)[C@H]1/C=C/c1cc(C(=O)[O-])c[n+](CCCC(=O)O)c1 [LONIJAPOSIDE A] — lower, 11%
- C=C[C@H]1[C@H](O[C@@H]2O[C@H](CO)[C@@H](O)[C@H](O)[C@H]2O)OC=C(C(=O)O)[C@H]1/C=C/c1cc(C(=O)[O-])c[n+](CCO)c1 [LONIJAPOSIDE C] — higher, 69.5%
